Measured values published in paper PMC5146284, “Molecular imaging with engineered physiology” (Nature Communications, 2016).

Legend:
rat brain (thalamus) = assay: MRI of haemodynamic response to intracranial CGRP infusion; assay type: in vivo, rat (Sprague-Dawley); settings: inferred from MRI time course during intracranial infusion
Text: Haemodynamic contrast provided sufficient resolution to monitor convective spread of the imaging agent from the site of infusion (Supplementary Fig. 1b).
Magnetic resonance imaging
Nineteen Sprague-Dawley rats were used for in vivo MRI experiments. […]
Animals were scanned by MRI to measure the changes in haemodynamic contrast following intracranial injections. […] Breathing rate and end-tidal expired isoflurane were continuously monitored. […]
Signals were averaged over six animals in 1.5 mm square regions of interest (ROIs) positioned around the infusion cannulae tips in each animal (cf. Fig. 2d); gray shading denotes standard errors as a function of time. (b) Time courses from multiple approximately concentric ROIs (diagrammed at left) were analyzed to determine whether hemodynamic MRI has sufficient spatial resolution to monitor convection of CGRP from the infusion site. For each ROI, the delay between the start of infusion and the ob-servation of statistically significant signal changes from baseline was measured (color coded bars at right). […]

[1] = test system: enterokinase (EK) light chain; assay: Proteolytic cleavage by enterokinase light chain (SDS-PAGE); assay type: biochemical; settings: 10 µM sensor, 2 h, 37 °C, different EK concentrations
Description: (§1) Proteolytic cleavage reactions
(§2) Supplementary Fig. 4. Proteolytic cleavage of candidate sensors and assessment by bioas-say. (a-e) Cleavage reaction products after incubation of 10 µM sensor with or without enzyme for 2 h at 37 °C. (a) MALDI mass spectrum of sensor (1) after incubation with or without FAP […]
(§3) (b) SDS-PAGE analysis of sensor
(§4) (c) SDS-PAGE analysis of sensor (3) after incubation with different concentrations of EK light […]
(§5) (d) SDS-PAGE analysis of sen- […]
(§6) and liberation of free CGRP. (f-k) Dose-response curves of uncleaved and cleaved sensors in […]
(§7) (f) Dose-response curves for Sensors (2-4) at final assay concentrations up to 10 uM (addition of 10 µL of 100 µM solution to 90 µL medium per well in bioassay) show no receptor activation by uncleaved GFP-linker-CGRP-G sensors even at 10-fold higher concentrations than were used in cleavage assays (g-k). (g-k) Dose-response curves for reaction products from (a-e). Error bars in (f-k) denote SD of measurements performed in triplicate.
(§8) (1 picture or pasted object on this page, not shown here)

TEV protease = assay: Proteolytic cleavage by TEV protease (SDS-PAGE); assay type: biochemical; settings: 10 µM sensor, 2 h, 37 °C
Description: as §1, §2, §3, §4, §5, §6, §7, §8

For `CC(C)C[C@H](NC(=O)CNC(=O)[C@H](C)NC(=O)[C@H](CC(C)C)NC(=O)[C@H](CCCNC(=N)N)NC(=O)[C@H](Cc1cnc[nH]1)NC(=O)[C@@H](NC(=O)[C@@H](NC(=O)[C@@H]1CSSC[C@H](NC(=O)[C@H](C)N)C(=O)N[C@@H](CC(=O)O)C(=O)N[C@@H]([C@@H](C)O)C(=O)N[C@@H](C)C(=O)N[C@@H]([C@@H](C)O)C(=O)N1)C(C)C)[C@@H](C)O)C(=O)N[C@@H](CC(C)C)C(=O)N[C@@H](CO)C(=O)N[C@@H](CCCNC(=N)N)C(=O)N[C@@H](CO)C(=O)NCC(=O)NCC(=O)N[C@H](C(=O)N[C@H](C(=O)N[C@@H](CCCCN)C(=O)N[C@@H](CC(N)=O)C(=O)N[C@@H](CC(N)=O)C(=O)N[C@@H](Cc1ccccc1)C(=O)N[C@H](C(=O)N1CCC[C@H]1C(=O)N[C@H](C(=O)N[C@@H](CC(N)=O)C(=O)N[C@H](C(=O)NCC(=O)N[C@@H](CO)C(=O)N[C@@H](CCCCN)C(=O)N[C@@H](C)C(=O)N[C@@H](Cc1ccccc1)C(N)=O)C(C)C)[C@@H](C)O)C(C)C)C(C)C)C(C)C` [wtCGRP, calcitonin gene-related peptide], the “removal or degradation in brain tissue” value (rat brain (thalamus)) was “not rapidly removed or degraded in brain tissue”.
With “cfSGFP2-DDDDK-CGRP-G [Sensor (3), recombinant fusion of cysteine-free GFP, a short linker, enterokinase site and non-amidated CGRP]” the “cleavage by EK light chain” value [1] was “increasing cleavage with increasing concentrations”.
In the case of “cfSGFP2-ENLYFQG-CGRP-G [Sensor (2), recombinant fusion of cysteine-free GFP, a short linker, TEV protease site and non-amidated CGRP]”, the “cleavage by TEV protease” value (TEV protease) is reported as “substantial but not complete cleavage”.
